Laboratory results as given in patent US20070128217A1 (priority 2003, published 2007).

Columns and labels:
[1] = test system: antibodies in sera from SARS patients (sera 1a, 1b, 2, 6, 37, 62, London, SARS-yellow, SARS-green); format: binding, human; parameters: Binding of serum 6 to linear peptides of protein X1 of SARS-CoV Urbani / Binding of serum 37 to linear peptides of protein X1 of SARS-CoV Urbani / Binding of serum 6 to looped/cyclic peptide (PEPSCAN-ELISA) / Binding of serum 37 to looped/cyclic peptide (PEPSCAN-ELISA) / Binding of serum 37 to looped/cyclic peptides of protein X1 of SARS-CoV Urbani / Binding of serum 6 to linear peptides of protein X2 / Binding of serum 37 to linear peptides of protein X2 / Binding of serum 37 to looped/cyclic peptides of protein X2 of SARS-CoV Urbani / Binding of serum 6 to linear peptides of protein M of SARS-CoV Urbani / Binding of serum 37 to linear peptides of protein M of SARS-CoV Urbani / Binding of serum 6 to looped/cyclic peptides of protein M of SARS-CoV Urbani / Binding of serum 37 to looped/cyclic peptides of protein M of SARS-CoV Urbani / Binding of serum 6 to linear peptides of protein X3 of SARS-CoV Urbani / Binding of serum 37 to linear peptides of protein X3 of SARS-CoV Urbani / Binding of serum 37 to looped/cyclic peptides of protein X3 of SARS-CoV Urbani / Binding of serum 6 to linear peptides of protein X4 of SARS-CoV Urbani / Binding of serum 37 to linear peptides of protein X4 of SARS-CoV Urbani / Binding of serum 37 to looped/cyclic peptides of protein X4 of SARS-CoV Urbani / Binding of serum 6 to linear peptides of protein X5 of SARS-CoV Urbani / Binding of serum 37 to linear peptides of protein X5 of SARS-CoV Urbani / Binding of serum 37 to looped/cyclic peptides of protein X5 of SARS-CoV Urbani / Binding of serum 6 to linear peptides of protein N of SARS-CoV Urbani / Binding of serum 37 to linear peptides of protein N of SARS-CoV Urbani / Binding of serum 6 to linear peptide (PEPSCAN-ELISA) / Binding of serum 1a to looped/cyclic peptides of protein N of SARS-CoV Urbani / Binding of serum 1b to looped/cyclic peptides of protein N of SARS-CoV Urbani / Binding of serum 2 to looped/cyclic peptides of protein N of SARS-CoV Urbani / Binding of serum 6 to looped/cyclic peptides of protein N of SARS-CoV Urbani / Binding of serum 37 to looped/cyclic peptides of protein N of SARS-CoV Urbani / Binding of serum 62 to looped/cyclic peptides of protein N of SARS-CoV Urbani / Binding of serum London to looped/cyclic peptides of protein N of SARS-CoV Urbani / Binding of serum SARS-green to looped/cyclic peptides of protein N of SARS-CoV Urbani: unit not given here
[2] = test system: control sera (pooled serum of ten healthy LUMC hospital workers; commercial negative donor pooled serum from the Dutch bloodbank); format: binding, human; parameters: Binding of Control serum LUMC to linear peptides / Binding of Control serum Blood-bank to linear peptides / Binding of Control serum LUMC to looped peptides / Binding of Control Serum Blood-Bank to Looped peptides / Binding of Control serum LUMC to linear peptides of the protein M of SARS-CoV Urbani / Binding of Control serum Blood-bank to linear peptides of the protein M of SARS-CoV Urbani / Binding of Control serum LUMC to looped peptides of the protein M of SARS-CoV Urbani / Binding of Control Serum Blood-Bank to Looped peptides of the protein M of SARS-CoV Urbani: unit not given here
[3] = test system: rabbit serum obtained by immunizing a rabbit with the SARS-CoV strain Frankfurt 1; format: binding; parameters: Binding of a rabbit serum to linear peptides / Binding of a rabbit serum to looped peptides / Rabbit serum linear peptides / Rabbit serum looped peptides / Binding of a rabbit serum to linear peptides of protein N of SARS-CoV Urbani (Rabbit serum linear peptides) / Binding of a rabbit serum to looped/cyclic peptides of protein N of SARS-CoV Urbani (Rabbit serum looped peptides): unit not given here

VKDYVVVHGYFTEVY
0.7: Binding of serum 1a to linear peptides of protein X1 of SARS-CoV Urbani [1]
0.4: Binding of serum 1b to looped/cyclic peptides of protein X1 of SARS-CoV Urbani [1] | Binding of serum 2 to linear peptides of protein X1 of SARS-CoV Urbani [1] | Binding of serum 2 to looped/cyclic peptides of protein X1 of SARS-CoV Urbani [1] | Binding of serum 6 to linear peptides of protein X1 of SARS-CoV Urbani [1] | Binding of serum SARS-yellow to linear peptides of protein X1 of SARS-CoV Urbani [1]
0.2: Binding of serum 6 to looped/cyclic peptides of protein X1 of SARS-CoV Urbani [1] | Binding of serum London to linear peptides of protein X1 of SARS-CoV Urbani [1] | Binding of serum London to looped/cyclic peptides of protein X1 of SARS-CoV Urbani [1] | Binding of serum SARS-green to linear peptides of protein X1 of SARS-CoV Urbani [1] | Binding of serum SARS-green to looped/cyclic peptides of protein X1 of SARS-CoV Urbani [1]
0.5: Binding of serum 1a to looped/cyclic peptides of protein X1 of SARS-CoV Urbani [1] | Binding of serum 62 to linear peptides of protein X1 of SARS-CoV Urbani [1] | Binding of serum 62 to looped/cyclic peptides of protein X1 of SARS-CoV Urbani [1] | Binding of serum SARS-yellow to looped/cyclic peptides of protein X1 of SARS-CoV Urbani [1] | Binding of Control Serum Blood-Bank to Looped peptides [2] | Binding of Control serum Blood-bank to linear peptides [2] | Binding of Control serum LUMC to linear peptides [2]
0.6: Binding of serum 1b to linear peptides of protein X1 of SARS-CoV Urbani [1] | Binding of serum 37 to linear peptides of protein X1 of SARS-CoV Urbani [1] | Binding of serum 37 to looped/cyclic peptides of protein X1 of SARS-CoV Urbani [1] | Binding of Control serum LUMC to looped peptides [2] | Binding of a rabbit serum to looped peptides [3]
0.1: Binding of a rabbit serum to linear peptides [3]

VLAAVYRINWVTGGI
0.6: Binding of serum 1a to looped/cyclic peptides of protein M of SARS-CoV Urbani [1] | Binding of serum 2 to looped/cyclic peptides of protein M of SARS-CoV Urbani [1] | Binding of serum 37 to linear peptides of protein M of SARS-CoV Urbani [1] | Binding of serum 37 to looped/cyclic peptides of protein M of SARS-CoV Urbani [1] | Binding of serum 62 to linear peptides of protein M of SARS-CoV Urbani [1] | Binding of serum SARS-green to linear peptides of protein M of SARS-CoV Urbani [1] | Binding of serum SARS-yellow to looped/cyclic peptides of protein M of SARS-CoV Urbani [1]
0.0: Rabbit serum looped peptides [3]
0.8: Binding of serum 1a to linear peptides of protein M of SARS-CoV Urbani [1] | Binding of Control Serum Blood-Bank to Looped peptides of the protein M of SARS-CoV Urbani [2] | Binding of Control serum LUMC to looped peptides of the protein M of SARS-CoV Urbani [2]
0.4: Binding of serum London to linear peptides of protein M of SARS-CoV Urbani [1]
0.7: Binding of serum 1b to linear peptides of protein M of SARS-CoV Urbani [1] | Binding of serum 2 to linear peptides of protein M of SARS-CoV Urbani [1] | Binding of serum 6 to looped/cyclic peptides of protein M of SARS-CoV Urbani [1]
0.9: Binding of Control serum Blood-bank to linear peptides of the protein M of SARS-CoV Urbani [2]
1.0: Binding of Control serum LUMC to linear peptides of the protein M of SARS-CoV Urbani [2]
0.2: Binding of serum London to looped/cyclic peptides of protein M of SARS-CoV Urbani [1] | Binding of serum SARS-green to looped/cyclic peptides of protein M of SARS-CoV Urbani [1] | Binding of serum SARS-yellow to linear peptides of protein M of SARS-CoV Urbani [1]
0.5: Binding of serum 1b to looped/cyclic peptides of protein M of SARS-CoV Urbani [1] | Binding of serum 6 to linear peptides of protein M of SARS-CoV Urbani [1] | Binding of serum 62 to looped/cyclic peptides of protein M of SARS-CoV Urbani [1]
0.3: Rabbit serum linear peptides [3]

VLKMLHSSSLTSLLK
0.2: Binding of serum 1b to looped/cyclic peptides of protein X2 of SARS-CoV Urbani [1] | Binding of serum 37 to looped/cyclic peptides of protein X2 of SARS-CoV Urbani [1] | Binding of serum SARS-green to looped/cyclic peptides of protein X2 of SARS-CoV Urbani [1] | Binding of serum SARS-yellow to looped/cyclic peptides of protein X2 of SARS-CoV Urbani [1] | Binding of a rabbit serum to linear peptides [3]
0.4: Binding of serum 1a to looped/cyclic peptides of protein X2 of SARS-CoV Urbani [1] | Binding of serum 62 to looped/cyclic peptides of protein X2 of SARS-CoV Urbani [1] | Binding of serum London to linear peptides of protein X2 [1] | Binding of Control serum LUMC to linear peptides [2]
0.3: Binding of Control serum LUMC to looped peptides [2] | Binding of a rabbit serum to looped peptides [3]
0.6: Binding of serum 1a to linear peptides of protein X2 [1] | Binding of serum 62 to linear peptides of protein X2 [1]
0.1: Binding of serum 2 to looped/cyclic peptides of protein X2 of SARS-CoV Urbani [1] | Binding of serum 6 to looped/cyclic peptides of protein X2 of SARS-CoV Urbani [1] | Binding of serum London to looped/cyclic peptides of protein X2 of SARS-CoV Urbani [1]
0.7: Binding of Control serum Blood-bank to linear peptides [2]
0.5: Binding of serum 1b to linear peptides of protein X2 [1] | Binding of serum 2 to linear peptides of protein X2 [1] | Binding of serum 6 to linear peptides of protein X2 [1] | Binding of serum 37 to linear peptides of protein X2 [1] | Binding of serum SARS-green to linear peptides of protein X2 [1] | Binding of serum SARS-yellow to linear peptides of protein X2 [1] | Binding of Control Serum Blood-Bank to Looped peptides [2]

VRYNTRGNTYSTAWL
1.2: Rabbit serum looped peptides [3]
0.2: Binding of serum London to looped/cyclic peptides of protein X5 of SARS-CoV Urbani [1]
0.4: Binding of serum 1b to linear peptides of protein X5 of SARS-CoV Urbani [1] | Binding of serum 2 to linear peptides of protein X5 of SARS-CoV Urbani [1] | Binding of serum 2 to looped/cyclic peptides of protein X5 of SARS-CoV Urbani [1] | Binding of serum 62 to looped/cyclic peptides of protein X5 of SARS-CoV Urbani [1] | Binding of serum SARS-green to linear peptides of protein X5 of SARS-CoV Urbani [1] | Binding of serum SARS-yellow to linear peptides of protein X5 of SARS-CoV Urbani [1]
0.6: Binding of serum 37 to linear peptides of protein X5 of SARS-CoV Urbani [1] | Binding of serum 37 to looped/cyclic peptides of protein X5 of SARS-CoV Urbani [1] | Binding of serum SARS-green to looped/cyclic peptides of protein X5 of SARS-CoV Urbani [1] | Binding of serum SARS-yellow to looped/cyclic peptides of protein X5 of SARS-CoV Urbani [1]
0.9: Binding of Control serum Blood-bank to linear peptides [2]
0.7: Binding of serum 1a to linear peptides of protein X5 of SARS-CoV Urbani [1] | Binding of serum 6 to linear peptides of protein X5 of SARS-CoV Urbani [1] | Binding of serum 62 to linear peptides of protein X5 of SARS-CoV Urbani [1] | Binding of serum London to linear peptides of protein X5 of SARS-CoV Urbani [1] | Rabbit serum linear peptides [3]
0.3: Binding of serum 1b to looped/cyclic peptides of protein X5 of SARS-CoV Urbani [1] | Binding of serum 6 to looped/cyclic peptides of protein X5 of SARS-CoV Urbani [1] | Binding of Control Serum Blood-Bank to Looped peptides [2]
0.5: Binding of serum 1a to looped/cyclic peptides of protein X5 of SARS-CoV Urbani [1] | Binding of Control serum LUMC to linear peptides [2] | Binding of Control serum LUMC to looped peptides [2]
